Numbers after ± are expanded uncertainties.
Assay: xn = mol fraction of the nth substance listed
Conditions: 101 kPa, Liquid

OCCN1CCOCC1 [4-morpholineethanol] + CCC(C)O
mass density [kg/m3]
Conditions	293.15 K	298.15 K	303.15 K	313.15 K	323.15 K
x1 = 0.0542	824.77 ± 0.83	821.68 ± 0.84	817.07 ± 0.86	809.49 ± 0.88	804.37 ± 0.9
x1 = 0.1098	843.95 ± 0.78	840.73 ± 0.79	836.08 ± 0.8	828.46 ± 0.83	823.27 ± 0.84
x1 = 0.1855	869.23 ± 0.71	865.83 ± 0.72	861.15 ± 0.74	853.47 ± 0.76	848.18 ± 0.78
x1 = 0.2431	887.71 ± 0.66	884.17 ± 0.67	879.46 ± 0.69	871.75 ± 0.71	866.4 ± 0.73
x1 = 0.2876	901.62 ± 0.63	897.97 ± 0.64	893.25 ± 0.65	885.52 ± 0.68	880.12 ± 0.69
x1 = 0.3266	913.58 ± 0.6	909.84 ± 0.61	905.11 ± 0.62	897.36 ± 0.65	891.91 ± 0.66
x1 = 0.3854	930.89 ± 0.56	927.02 ± 0.57	922.28 ± 0.58	914.51 ± 0.6	909.01 ± 0.62
x1 = 0.4277	943.01 ± 0.53	939.04 ± 0.54	934.29 ± 0.55	926.51 ± 0.58	920.97 ± 0.59
x1 = 0.4822	958.03 ± 0.5	953.95 ± 0.51	949.18 ± 0.52	941.4 ± 0.54	935.81 ± 0.56
x1 = 0.5189	967.85 ± 0.47	963.68 ± 0.48	958.92 ± 0.5	951.14 ± 0.52	945.51 ± 0.53
x1 = 0.5672	980.37 ± 0.44	976.09 ± 0.45	971.33 ± 0.47	963.55 ± 0.49	957.89 ± 0.5
x1 = 0.6044	989.72 ± 0.42	985.36 ± 0.43	980.59 ± 0.44	972.82 ± 0.46	967.14 ± 0.48
x1 = 0.6438	999.36 ± 0.39	994.93 ± 0.4	990.17 ± 0.42	982.4 ± 0.44	976.69 ± 0.46
x1 = 0.6798	1007.93 ± 0.42	1003.44 ± 0.41	998.68 ± 0.4	990.92 ± 0.42	985.19 ± 0.44
x1 = 0.7355	1020.77 ± 0.47	1016.16 ± 0.46	1011.41 ± 0.44	1003.67 ± 0.41	997.91 ± 0.41
x1 = 0.7942	1033.69 ± 0.53	1028.98 ± 0.51	1024.24 ± 0.49	1016.52 ± 0.47	1010.73 ± 0.45
x1 = 0.8427	1044.13 ± 0.57	1039.33 ± 0.55	1034.6 ± 0.54	1026.9 ± 0.51	1021.09 ± 0.49
x1 = 0.8785	1051.72 ± 0.6	1046.85 ± 0.59	1042.13 ± 0.57	1034.45 ± 0.54	1028.62 ± 0.52
x1 = 0.9235	1061.1 ± 0.6	1056.15 ± 0.63	1051.43 ± 0.61	1043.77 ± 0.58	1037.92 ± 0.56
x1 = 0.9844	1073.45 ± 0.7	1068.39 ± 0.68	1063.69 ± 0.67	1056.06 ± 0.64	1050.18 ± 0.62

OCCN1CCOCC1 [4-morpholineethanol] + CCCCO
mass density [kg/m3]
Conditions	293.15 K	298.15 K	303.15 K	313.15 K	323.15 K
x1 = 0.0652	832.8 ± 0.81	829 ± 0.82	825.1 ± 0.83	817.44 ± 0.86	809.9 ± 0.88
x1 = 0.1125	849.1 ± 0.76	845.21 ± 0.78	841.24 ± 0.79	833.54 ± 0.81	826.03 ± 0.83
x1 = 0.1865	873.74 ± 0.7	869.7 ± 0.71	865.64 ± 0.72	857.88 ± 0.75	850.45 ± 0.77
x1 = 0.2436	891.83 ± 0.65	887.69 ± 0.66	883.56 ± 0.68	875.77 ± 0.7	868.41 ± 0.72
x1 = 0.2865	905.09 ± 0.62	900.87 ± 0.63	896.69 ± 0.64	888.88 ± 0.67	881.58 ± 0.69
x1 = 0.3275	917.49 ± 0.59	913.2 ± 0.6	908.97 ± 0.61	901.14 ± 0.63	893.89 ± 0.66
x1 = 0.3852	934.26 ± 0.55	929.86 ± 0.56	925.57 ± 0.57	917.73 ± 0.6	910.57 ± 0.62
x1 = 0.4259	945.77 ± 0.52	941.31 ± 0.53	936.97 ± 0.55	929.12 ± 0.57	922.02 ± 0.59
x1 = 0.4784	960.02 ± 0.49	955.47 ± 0.5	951.09 ± 0.51	943.23 ± 0.54	936.22 ± 0.56
x1 = 0.5248	972.29 ± 0.46	967.67 ± 0.47	963.24 ± 0.48	955.38 ± 0.51	948.45 ± 0.53
x1 = 0.5649	982.5 ± 0.43	977.82 ± 0.45	973.35 ± 0.46	965.5 ± 0.48	958.65 ± 0.5
x1 = 0.6126	994.28 ± 0.4	989.52 ± 0.42	985.02 ± 0.43	977.16 ± 0.45	970.4 ± 0.47
x1 = 0.6539	1004.15 ± 0.41	999.34 ± 0.39	994.8 ± 0.41	986.96 ± 0.43	980.27 ± 0.45
x1 = 0.6898	1012.51 ± 0.44	1007.64 ± 0.42	1003.08 ± 0.41	995.25 ± 0.41	988.63 ± 0.43
x1 = 0.7353	1022.74 ± 0.48	1017.81 ± 0.46	1013.21 ± 0.45	1005.4 ± 0.42	998.88 ± 0.4
x1 = 0.7962	1035.87 ± 0.53	1030.87 ± 0.52	1026.23 ± 0.5	1018.44 ± 0.47	1012.05 ± 0.45
x1 = 0.8367	1044.36 ± 0.57	1039.31 ± 0.55	1034.64 ± 0.54	1026.87 ± 0.51	1020.56 ± 0.49
x1 = 0.8823	1053.64 ± 0.61	1048.53 ± 0.59	1043.84 ± 0.58	1036.07 ± 0.55	1029.88 ± 0.53
x1 = 0.9248	1062.23 ± 0.65	1057.07 ± 0.63	1052.35 ± 0.61	1044.62 ± 0.59	1038.5 ± 0.57
x1 = 0.9844	1073.74 ± 0.7	1068.51 ± 0.68	1063.75 ± 0.67	1056.05 ± 0.64	1050.07 ± 0.62

OCCN1CCOCC1 [4-morpholineethanol] + CC(C)O
mass density [kg/m3]
Conditions	293.15 K	298.15 K	303.15 K	313.15 K	323.15 K
x1 = 0.0543	810.11 ± 0.88	806.22 ± 0.89	801.63 ± 0.9	792.98 ± 0.93	784.44 ± 0.96
x1 = 0.1127	835.5 ± 0.8	831.48 ± 0.82	826.84 ± 0.83	818.19 ± 0.86	809.79 ± 0.88
x1 = 0.1873	865.79 ± 0.72	861.61 ± 0.74	856.92 ± 0.75	848.29 ± 0.78	840.07 ± 0.8
x1 = 0.2468	888.39 ± 0.66	884.1 ± 0.7	879.38 ± 0.69	870.77 ± 0.72	862.71 ± 0.74
x1 = 0.2874	903.13 ± 0.63	898.77 ± 0.64	894.03 ± 0.65	885.45 ± 0.68	877.5 ± 0.7
x1 = 0.3248	916.03 ± 0.59	911.6 ± 0.6	906.84 ± 0.62	898.29 ± 0.64	890.46 ± 0.67
x1 = 0.3873	936.59 ± 0.54	932.06 ± 0.56	927.29 ± 0.57	918.79 ± 0.6	911.14 ± 0.62
x1 = 0.4267	948.75 ± 0.51	944.16 ± 0.53	939.38 ± 0.54	930.92 ± 0.57	923.4 ± 0.6
x1 = 0.4882	967 ± 1	962.32 ± 0.49	957.53 ± 0.5	949.14 ± 0.53	941.81 ± 0.55
x1 = 0.5237	976.91 ± 0.45	972.17 ± 0.46	967.38 ± 0.47	959.03 ± 0.5	951.82 ± 0.52
x1 = 0.5894	994.19 ± 0.4	989.37 ± 0.42	984.57 ± 0.43	976.32 ± 0.45	969.32 ± 0.47
x1 = 0.6422	1007.31 ± 0.41	1002.43 ± 0.4	997.63 ± 0.4	989.46 ± 0.42	982.63 ± 0.44
x1 = 0.6899	1018.36 ± 0.46	1013.43 ± 0.44	1008.64 ± 0.42	1000.53 ± 0.4	993.87 ± 0.41
x1 = 0.7439	1030.26 ± 0.51	1025.27 ± 0.49	1020.49 ± 0.47	1012.47 ± 0.44	1005.99 ± 0.42
x1 = 0.7855	1038.88 ± 0.54	1033.86 ± 0.52	1029.09 ± 0.51	1021.13 ± 0.48	1014.79 ± 0.46
x1 = 0.8238	1046.42 ± 0.57	1041.36 ± 0.56	1036.59 ± 0.54	1028.7 ± 0.5	1022.49 ± 0.49
x1 = 0.8841	1057.54 ± 0.62	1052.43 ± 0.61	1047.69 ± 0.59	1039.9 ± 0.6	1033.9 ± 0.5
x1 = 0.9247	1064.51 ± 0.66	1059.37 ± 0.64	1054.64 ± 0.62	1046.93 ± 0.6	1041.06 ± 0.57
x1 = 0.9544	1069.21 ± 0.68	1064.05 ± 0.66	1059.33 ± 0.65	1051.68 ± 0.62	1045.92 ± 0.6
x1 = 0.9844	1074.11 ± 0.7	1068.93 ± 0.69	1064.23 ± 0.67	1056.62 ± 0.64	1050.96 ± 0.62
